What was measured:
Format in all cases: in vivo
[1] = system: field corn (Zea mays L., var. Dekalb 535, CORN); test: Post-emerge test, crop safety; settings: post-emerge, 14 days after application, rating scale 0-100
Method in brief: (§1)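 Compounds in acetone were track-sprayed at 187 l/ha, 15–1000 g ai/ha, onto sandy loam pots. Pre-emerge seeds were sown one day before spraying, with surface watering afterwards. Post-emerge plants were at the 2–3 leaf stage and sprayed with 0.25% v/v non-ionic surfactant. Injury was rated 0–100 at 14 days.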

[2] = system: upland rice (Oryza sp., var. Tebonnet, RICE); test: Post-emerge test, crop safety; settings: post-emerge, 14 days after application, rating scale 0-100
Method in brief: as §1

[3] = system: redroot pigweed (Amaranthus retroflexus, AMARE); test: Post-emerge test, greenhouse herbicide activity screening; settings: post-emerge, 14 days after application
Method in brief: (§2)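 Compounds in acetone were track-sprayed at 15-1000 g ai/ha (187 l/ha) on sandy loam pots: pre-emerge one day after seeding, post-emerge at 2-3 leaf stage with 0.25% v/v non-ionic surfactant. Phytotoxicity was rated 14 days later on a 0 (no damage) to 100 (complete death) scale.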

[4] = system: sicklepod (Cassia obtusifolia, CASOB); test: as above; settings: post-emerge, 14 days after application, rating scale 0-100
Method in brief: as §2

[5] = system: large crabgrass (Digitaria sanguinalis, DIGSA); test: as above; settings: post-emerge, 14 days after application, rating scale 0-100
Method in brief: as §2

[6] = system: velvetleaf (Abutilon theophrasti, ABUTH); test: as above; settings: post-emerge, 14 days after application, rating scale 0-100
Method in brief: as §2

[7] = system: johnsongrass (Sorghum halepense, SORHA); test: as above; settings: post-emerge, 14 days after application, rating scale 0-100
Method in brief: as §2

[8] = system: green foxtail (Setaria viridis, SETVI); test: as above; settings: post-emerge, 14 days after application, rating scale 0-100
Method in brief: as §2

[9] = system: lambsquarters (Chenopodium album, CHEAL); test: as above; settings: post-emerge, 14 days after application, rating scale 0-100
Method in brief: as §2

[10] = system: ivyleaf morningglory (Ipomoea hederacea, IPOHE); test: as above; settings: post-emerge, 14 days after application, rating scale 0-100
Method in brief: as §2

[11] = system: field corn (Zea mays L., var. Dekalb 535, CORN); test: Pre-emerge test, crop safety; settings: crop damage rating 0-100, 14 days after application
Method in brief: (§3)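 Applied at 15–1000 g ai/ha from acetone in 187 l/ha spray volume. Post-emergence applications included 0.25% v/v non-ionic surfactant and reached plants sown 8–21 days before. Pre-emergence applications were incorporated by surface watering. Efficacy or crop damage was rated on a 0–100 scale after 14 days.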

[12] = system: upland rice (Oryza sp., var. Tebonnet, RICE); test: Pre-emerge test, crop safety; settings: crop damage rating 0-100, 14 days after application
Method in brief: as §3

[13] = system: redroot pigweed (Amaranthus retroflexus, AMARE); test: Pre-emerge test, greenhouse herbicide activity screening; settings: phytotoxicity rating 0-100, 14 days after application
Method in brief: as §1

[14] = system: sicklepod (Cassia obtusifolia, CASOB); test: as above; settings: phytotoxicity rating 0-100, 14 days after application
Method in brief: as §1

[15] = system: large crabgrass (Digitaria sanguinalis, DIGSA); test: as above; settings: phytotoxicity rating 0-100, 14 days after application
Method in brief: as §1

[16] = system: velvetleaf (Abutilon theophrasti, ABUTH); test: as above; settings: phytotoxicity rating 0-100, 14 days after application
Method in brief: as §1

[17] = system: johnsongrass (Sorghum halepense, SORHA); test: as above; settings: phytotoxicity rating 0-100, 14 days after application
Method in brief: as §1

[18] = system: green foxtail (Setaria viridis, SETVI); test: as above; settings: phytotoxicity rating 0-100, 14 days after application
Method in brief: as §1

[19] = system: lambsquarters (Chenopodium album, CHEAL); test: as above; settings: phytotoxicity rating 0-100, 14 days after application
Method in brief: as §1

[20] = system: ivyleaf morningglory (Ipomoea hederacea, IPOHE); test: as above; settings: phytotoxicity rating 0-100, 14 days after application
Method in brief: as §1

[21] = system: barnyardgrass (Echinochloa crus-galli, ECHCG); test: as above; settings: phytotoxicity rating 0-100, 14 days after application
Method in brief: as §1

[22] = 63 g ai/ha, rating scale 0-100 (0 no damage, 100 complete death)
[23] = 250 g ai/ha, rating scale 0-100

SMILES: COc1c(Cl)cc(F)c(-n2c(=O)cc(C(F)(F)F)n(C)c2=O)c1NC(=O)OCc1c(Cl)cccc1Cl [4-24]
- phytotoxicity rating CORN (crop damage) ([1]; 63 g ai/ha): 35
- phytotoxicity rating CORN (crop damage) ([1]; 250 g ai/ha): 70
- phytotoxicity rating RICE (crop damage) ([2]; 63 g ai/ha): 20
- phytotoxicity rating RICE (crop damage) ([2]; 250 g ai/ha): 45
- phytotoxicity rating AMARE [3, 22]: 100
- phytotoxicity rating AMARE [3, 23]: 100
- phytotoxicity rating CASOB ([4]; 63 g ai/ha): 70
- phytotoxicity rating CASOB ([4]; 250 g ai/ha): 100
- phytotoxicity rating DIGSA ([5]; 63 g ai/ha): 40
- phytotoxicity rating DIGSA ([5]; 250 g ai/ha): 50
- phytotoxicity rating ABUTH ([6]; 63 g ai/ha): 100
- phytotoxicity rating ABUTH ([6]; 250 g ai/ha): 100
- phytotoxicity rating SORHA ([7]; 63 g ai/ha): 40
- phytotoxicity rating SORHA ([7]; 250 g ai/ha): 60
- phytotoxicity rating SETVI ([8]; 63 g ai/ha): 50
- phytotoxicity rating SETVI ([8]; 250 g ai/ha): 80
- phytotoxicity rating CHEAL ([9]; 63 g ai/ha): 100
- phytotoxicity rating CHEAL ([9]; 250 g ai/ha): 100
- phytotoxicity rating IPOHE ([10]; 63 g ai/ha): 100
- phytotoxicity rating IPOHE ([10]; 250 g ai/ha): 100
- Pre-emerge Herbicidal Activity CORN ([11]; 63 g ai/ha): 0
- Pre-emerge Herbicidal Activity CORN ([11]; 250 g ai/ha): 5
- Pre-emerge Herbicidal Activity RICE ([12]; 63 g ai/ha): 10
- Pre-emerge Herbicidal Activity RICE ([12]; 250 g ai/ha): 50
- Pre-emerge Herbicidal Activity AMARE ([13]; 63 g ai/ha): 100
- Pre-emerge Herbicidal Activity AMARE ([13]; 250 g ai/ha): 100
- Pre-emerge Herbicidal Activity CASOB ([14]; 63 g ai/ha): 0
- Pre-emerge Herbicidal Activity CASOB ([14]; 250 g ai/ha): 80
- Pre-emerge Herbicidal Activity DIGSA ([15]; 63 g ai/ha): 30
- Pre-emerge Herbicidal Activity DIGSA ([15]; 250 g ai/ha): 70
- Pre-emerge Herbicidal Activity ABUTH ([16]; 63 g ai/ha): 50
- Pre-emerge Herbicidal Activity ABUTH ([16]; 250 g ai/ha): 100
- Pre-emerge Herbicidal Activity SORHA ([17]; 63 g ai/ha): 10
- Pre-emerge Herbicidal Activity SORHA ([17]; 250 g ai/ha): 40
- Pre-emerge Herbicidal Activity SETVI ([18]; 63 g ai/ha): 90
- Pre-emerge Herbicidal Activity SETVI ([18]; 250 g ai/ha): 100
- Pre-emerge Herbicidal Activity CHEAL ([19]; 63 g ai/ha): 100
- Pre-emerge Herbicidal Activity CHEAL ([19]; 250 g ai/ha): 100
- Pre-emerge Herbicidal Activity IPOHE ([20]; 63 g ai/ha): 20
- Pre-emerge Herbicidal Activity IPOHE ([20]; 250 g ai/ha): 30
- Pre-emerge Herbicidal Activity ECHCG ([21]; 63 g ai/ha): 10
- Pre-emerge Herbicidal Activity ECHCG ([21]; 250 g ai/ha): 50

SMILES: COc1c(Cl)cc(F)c(-n2c(=O)cc(C(F)(F)F)n(C)c2=O)c1NC(=O)Oc1c(C)cc(C)cc1C [4-25]
- phytotoxicity rating CORN (crop damage) ([1]; 63 g ai/ha): 5
- phytotoxicity rating CORN (crop damage) ([1]; 250 g ai/ha): 15
- phytotoxicity rating RICE (crop damage) ([2]; 63 g ai/ha): 0
- phytotoxicity rating RICE (crop damage) ([2]; 250 g ai/ha): 20
- phytotoxicity rating AMARE [3, 22]: 70
- phytotoxicity rating AMARE [3, 23]: 100
- phytotoxicity rating CASOB ([4]; 63 g ai/ha): 20
- phytotoxicity rating CASOB ([4]; 250 g ai/ha): 30
- phytotoxicity rating DIGSA ([5]; 63 g ai/ha): 0
- phytotoxicity rating DIGSA ([5]; 250 g ai/ha): 0
- phytotoxicity rating ABUTH ([6]; 63 g ai/ha): 70
- phytotoxicity rating ABUTH ([6]; 250 g ai/ha): 95
- phytotoxicity rating SORHA ([7]; 63 g ai/ha): 0
- phytotoxicity rating SORHA ([7]; 250 g ai/ha): 10
- phytotoxicity rating SETVI ([8]; 63 g ai/ha): 20
- phytotoxicity rating SETVI ([8]; 250 g ai/ha): 30
- phytotoxicity rating CHEAL ([9]; 63 g ai/ha): 75
- phytotoxicity rating CHEAL ([9]; 250 g ai/ha): 85
- phytotoxicity rating IPOHE ([10]; 63 g ai/ha): 40
- phytotoxicity rating IPOHE ([10]; 250 g ai/ha): 60
- Pre-emerge Herbicidal Activity CORN ([11]; 63 g ai/ha): 0
- Pre-emerge Herbicidal Activity CORN ([11]; 250 g ai/ha): 0
- Pre-emerge Herbicidal Activity RICE ([12]; 63 g ai/ha): 0
- Pre-emerge Herbicidal Activity RICE ([12]; 250 g ai/ha): 0
- Pre-emerge Herbicidal Activity AMARE ([13]; 63 g ai/ha): 30
- Pre-emerge Herbicidal Activity AMARE ([13]; 250 g ai/ha): 100
- Pre-emerge Herbicidal Activity CASOB ([14]; 63 g ai/ha): 0
- Pre-emerge Herbicidal Activity CASOB ([14]; 250 g ai/ha): 20
- Pre-emerge Herbicidal Activity DIGSA ([15]; 63 g ai/ha): 0
- Pre-emerge Herbicidal Activity DIGSA ([15]; 250 g ai/ha): 10
- Pre-emerge Herbicidal Activity ABUTH ([16]; 63 g ai/ha): 0
- Pre-emerge Herbicidal Activity ABUTH ([16]; 250 g ai/ha): 60
- Pre-emerge Herbicidal Activity SORHA ([17]; 63 g ai/ha): 0
- Pre-emerge Herbicidal Activity SORHA ([17]; 250 g ai/ha): 0
- Pre-emerge Herbicidal Activity SETVI ([18]; 63 g ai/ha): 0
- Pre-emerge Herbicidal Activity SETVI ([18]; 250 g ai/ha): 50
- Pre-emerge Herbicidal Activity CHEAL ([19]; 63 g ai/ha): 60
- Pre-emerge Herbicidal Activity CHEAL ([19]; 250 g ai/ha): 100
- Pre-emerge Herbicidal Activity IPOHE ([20]; 63 g ai/ha): 0
- Pre-emerge Herbicidal Activity IPOHE ([20]; 250 g ai/ha): 0
- Pre-emerge Herbicidal Activity ECHCG ([21]; 63 g ai/ha): 0
- Pre-emerge Herbicidal Activity ECHCG ([21]; 250 g ai/ha): 0

From patent US6355799B1, “Substituted benzene compounds, process for their preparation, and herbicidal and defoliant compositions containing them” (ISK Americas Incorporated, priority 1997, dated 2002)
